Measured values taken from ChEMBL document CHEMBL1201862, “PubChem BioAssay data set” (2004).

Molecular target: T1, Zinc finger protein mex-5 (Caenorhabditis elegans, UniProt Q9XUB2)
T1 sequence (Q9XUB2 whole entry): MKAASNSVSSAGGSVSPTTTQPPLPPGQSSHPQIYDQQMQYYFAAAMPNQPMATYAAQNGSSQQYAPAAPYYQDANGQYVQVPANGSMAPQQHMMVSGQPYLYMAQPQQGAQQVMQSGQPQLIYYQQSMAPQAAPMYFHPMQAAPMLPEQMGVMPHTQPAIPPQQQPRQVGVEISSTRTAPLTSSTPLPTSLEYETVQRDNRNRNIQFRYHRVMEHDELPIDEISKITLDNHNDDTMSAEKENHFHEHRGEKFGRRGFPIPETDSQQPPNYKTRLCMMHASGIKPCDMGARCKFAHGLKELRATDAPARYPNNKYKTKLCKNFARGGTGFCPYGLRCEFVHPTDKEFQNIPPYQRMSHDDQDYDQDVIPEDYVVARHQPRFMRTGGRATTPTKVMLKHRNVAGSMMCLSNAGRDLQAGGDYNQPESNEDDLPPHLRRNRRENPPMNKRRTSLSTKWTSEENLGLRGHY
Test: MEX-5/TCR-2 RNA interaction inhibitors, dose response, biochemical, C. elegans, fluorescence polarization (AID 1960); in the data actives have a measured EC50 and inactives only a lower limit

CN1CCc2cc3c(c4c2[C@H]1[C@H](O)c1ccccc1-4)OCO3
EC50: 8.45 µM (inconclusive)
